pKi: −log10 of the molar value. Where two headings read alike, the source gives them in different places. Where no end group is shown, it is not given here. The star is where a group is joined. CH2Cl = ClC*

Results on 12 molecules are retold here after US4318904A, “Peptide affinity labels for thrombin and other trypsin-like proteases” (Research Corporation, priority 1980, dated 1982).

Assay [1] concerns the target T1, thrombin (Homo sapiens, UniProt P00734). Kind of assay: Inactivation of human thrombin, fibrinogen clotting assay. It is filed as biochemical. As to conditions: 4.5×10^-7 M thrombin + 2.25×10^-7 M label; theoretical value 50%.
Assay [2] deals with T1, thrombin. Kind of assay: Inactivation of human thrombin, residual esterase activity. It is filed as biochemical. The settings on record: 4.5×10^-7 M thrombin + 2.25×10^-7 M label; theoretical value 50%.
The target in assay [3] is T1, thrombin. On the set-up: Thrombin itself is generated from a pro-enzyme, prothrombin, by the enzymatic action of another proteolytic enzyme, factor Xa. The settings on record: Bajusz et al, page 603; reversible inhibitor; cited from earlier work.
The target of assay [4] is T1, thrombin. Set-up: Thrombin itself is generated from a pro-enzyme, prothrombin, by the enzymatic action of another proteolytic enzyme, factor Xa. The settings on record: cited from earlier work; for t1/2, half time for the pseudo-first-order inactivation of thrombin / kapp /[I], apparent first order rate constant for inactivation of thrombin / concentration of affinity label: pH 7.0, 25° C; for pKi / k2 / k2 /Ki: Table IV, ref (a) Kettner and Shaw.

With `N=C(N)NCCC[C@H](NC(=O)[C@@H]1CCCN1C(=O)[C@H](N)Cc1ccccc1)C(=O)CCl` [D-Phe-Pro-ArgCH2 Cl, D-Phe-Pro-Arg-CH2 Cl.2HCl], the “inactivation of human thrombin by clotting assay” value on thrombin [1] stood at 45%. In addition, the “inactivation of human thrombin by esterase assay” value at thrombin [2] stood at 47%.

Turning to D-Phe-Pro-Arg-H, at thrombin [3], the pKi (in general, the Ki on a negative log10 scale, so that one unit is a factor of ten) was 7.12.

Consider Glu-Gly-ArgCH2 Cl, for which the “t1/2, half time for the pseudo-first-order inactivation of thrombin” value (“t1/2, half time” for short) at thrombin [4] (inhibitor 1.0 × 10^-6 M) is reported as 31 min. Besides, the “kapp /[I], apparent first order rate constant for inactivation of thrombin / concentration of affinity label” value on thrombin [4] is listed as 2.20 (min^-1 M^-1) × 10^-4.

With Gly-Val-ArgCH2 Cl, at thrombin [4], the pKi is 4.89; the k2 was 0.30 min⁻¹; the “k2 /Ki” value was 383 M⁻¹ s⁻¹; the “kapp /[I], apparent first order rate constant for inactivation of thrombin / concentration of affinity label” value is reported as 1.90 (min^-1 M^-1) × 10^-4. On thrombin [4] (inhibitor 2.0 × 10^-6 M), the “t1/2, half time” value is 18 min.

In the case of Ile-Pro-ArgCH2 Cl, the “t1/2, half time” value on thrombin [4] (inhibitor 7.5 × 10^-8 M) is reported as 22 min. Besides, at thrombin [4], the “kapp /[I], apparent first order rate constant for inactivation of thrombin / concentration of affinity label” value is reported as 42.00 (min^-1 M^-1) × 10^-4.

With Phe-Ala-ArgCH2 Cl, on thrombin [4], the pKi is 5.54, the k2 was 0.26 min⁻¹ and the “k2 /Ki” value is 1500 M⁻¹ s⁻¹.

In the case of Phe-Ala-LysCH2 Cl, at thrombin [4], the pKi is 4.43, the k2 was 0.34 min⁻¹ and the “k2 /Ki” value is 150 M⁻¹ s⁻¹.

In the case of Pro-Gly-ArgCH2 Cl, on thrombin [4] (inhibitor 1.0 × 10^-6 M), the “t1/2, half time” value is 57 min. Moreover, the “kapp /[I], apparent first order rate constant for inactivation of thrombin / concentration of affinity label” value on thrombin [4] is 1.20 (min^-1 M^-1) × 10^-4.

On to Pro-Phe-ArgCH2 Cl, for which, at thrombin [4] (inhibitor 5.0 × 10^-5 M), the “t1/2, half time” value was 35 min. The “kapp /[I], apparent first order rate constant for inactivation of thrombin / concentration of affinity label” value at thrombin [4] is reported as 0.04 (min^-1 M^-1) × 10^-4.

Regarding Val-Ile-Pro-ArgCH2 Cl (VIPR-CH2Cl), the “t1/2, half time” value with thrombin [4] (inhibitor 7.5 × 10^-8 M) was 13 min. In the assay with thrombin [4], the “kapp /[I], apparent first order rate constant for inactivation of thrombin / concentration of affinity label” value is recorded as 73.00 (min^-1 M^-1) × 10^-4.

Val-Pro-ArgCH2 Cl: on thrombin [4], the pKi was 6.17; the k2 is 0.31 min⁻¹; the “k2 /Ki” value is 6670 M⁻¹ s⁻¹; the “kapp /[I], apparent first order rate constant for inactivation of thrombin / concentration of affinity label” value is 54.00 (min^-1 M^-1) × 10^-4. The “t1/2, half time” value on thrombin [4] (inhibitor 7.5 × 10^-8 M) is 17 min.

With Val-Val-ArgCH2 Cl, the “t1/2, half time” value at thrombin [4] (inhibitor 1.0 × 10^-6 M) is 33 min. Further, the “kapp /[I], apparent first order rate constant for inactivation of thrombin / concentration of affinity label” value on thrombin [4] is reported as 2.10 (min^-1 M^-1) × 10^-4.
